{"source": "paper PMC4062305", "about": "(Journal of medicinal chemistry, 2013)", "biological_target": "T1, FAAH activity in brain (Mus musculus, UniProt O08914)", "T1 sequence (O08914 1-579)": "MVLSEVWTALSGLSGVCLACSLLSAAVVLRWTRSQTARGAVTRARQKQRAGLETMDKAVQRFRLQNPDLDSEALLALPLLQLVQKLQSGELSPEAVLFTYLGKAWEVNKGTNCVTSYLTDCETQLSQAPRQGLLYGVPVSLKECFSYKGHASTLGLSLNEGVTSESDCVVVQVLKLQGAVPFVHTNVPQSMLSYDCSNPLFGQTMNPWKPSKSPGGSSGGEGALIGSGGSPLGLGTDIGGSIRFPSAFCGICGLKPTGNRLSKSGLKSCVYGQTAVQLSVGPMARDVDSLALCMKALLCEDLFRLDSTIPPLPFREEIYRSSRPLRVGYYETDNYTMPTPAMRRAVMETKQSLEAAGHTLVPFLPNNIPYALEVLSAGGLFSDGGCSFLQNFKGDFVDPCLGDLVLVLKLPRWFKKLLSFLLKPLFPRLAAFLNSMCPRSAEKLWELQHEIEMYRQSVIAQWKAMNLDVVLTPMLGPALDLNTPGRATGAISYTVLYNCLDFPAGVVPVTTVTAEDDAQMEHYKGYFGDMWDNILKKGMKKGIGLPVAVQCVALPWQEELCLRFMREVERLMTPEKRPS", "assay": "Ex vivo FAAH inhibition in brain after systemic administration", "design": "species or system Swiss Webster mice", "conditions": "s.c. doses up to 40 or 75 mg/kg, 1 h after injection", "note": "“Also recorded” adds a separate entry of the source.", "data": [{"smiles": "NC(=O)c1cccc(-c2cc(OC(=O)NC3CCCCC3)ccc2C(=O)O)c1", "note": "[compound 29, Cyclohexylcarbamic Acid 3’-Carbamoyl-6-carboxybiphenyl-3-yl Ester]", "values": [{"measurement": "Access to the brain in dose-exploration study (brain FAAH inhibition)", "value": "failed to enter the brain even at the highest dose tested; also recorded: did not enter the brain, even at the highest dosage tested"}]}, {"smiles": "CC(=O)Nc1cccc(-c2cc(OC(=O)NC3CCCCC3)ccc2O)c1", "note": "[7c, Cyclohexylcarbamic Acid 3’-Acetamido-6-hydroxybiphenyl-3-yl Ester]", "values": [{"measurement": "Access to the brain in dose-exploration study (brain FAAH inhibition)", "value": "significantly higher brain penetration relative to 3, 7d and 7e at all doses tested"}]}, {"smiles": "N.NC(=O)c1cccc(-c2cc(OC(=O)NC3CCCCC3)ccc2OS(=O)(=O)O)c1", "note": "[compound 30, Ammonium Cyclohexylcarbamic Acid 3’-Carbamoyl-6-sulfatebiphenyl-3-yl Ester]", "values": [{"measurement": "Access to the brain in dose-exploration study (brain FAAH inhibition)", "value": "did not enter the brain, even at the highest dosage tested"}]}]}
